Patent US10131652B2, “Pyrimidinyloxy benzene derivatives as herbicides” (E. I. DU PONT DE NEMOURS AND COMPANY, priority 2014, dated 2018)

Experiments:
Assay type in all cases: in vivo
[1] = system: chickweed (common chickweed, Stellaria media); test: Test D postemergence plant response; conditions: for Plant response rating, Chickweed: scale 0 to 100, 0 no effect, 100 complete control
Summary of the method: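 Postemergence spray on plants 2–18 cm tall (1- to 4-leaf stage), grown in pots of peat/vermiculite medium. Plants were kept in a greenhouse for 13–15 days, then visually rated against untreated controls on a 0 (no effect) to 100 (complete control) scale.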

[2] = system: galium (catchweed bedstraw, Galium aparine); test: Test B postemergence plant response; conditions: Postemergence, 1000 g ai/ha; 0 to 100 scale (0 no effect, 100 complete control)
Summary of the method: (§1)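 Plants grown in pots of loam soil–sand blend were sprayed postemergence with formulated test chemicals at 2 to 10 cm height, one- to two-leaf stage. After about 10 days in a greenhouse, injury was visually rated against untreated controls on a 0 to 100 scale (0 no effect, 100 complete control).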

[3] = system: blackgrass (Alopecurus myosuroides); test: Test B postemergence plant response; conditions: Postemergence, 1000 g ai/ha; 0 to 100 scale (0 no effect, 100 complete control)
Summary of the method: as §1

[4] = system: yellow nutsedge (Cyperus esculentus); test: Test D pre-/postemergence plant response; conditions: Postemergence
Summary of the method: (§2)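 Plants are held in a greenhouse 13 to 15 days after spraying, then injury is rated by eye relative to controls on a 0 to 100 scale. Treatments are preemergence on freshly sown loam/sand pots or postemergence at 1- to 4-leaf stage in peat-based medium; surfactant-containing solvent formulation.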

[5] = system: barnyardgrass (Echinochloa crus-galli); test: Test D pre-/postemergence plant response; conditions: Postemergence; for Plant response rating, Barnyardgrass: scale 0 to 100, 0 no effect, 100 complete control
Summary of the method: as §2

[6] = system: oilseed rape (Brassica napus); test: Test D pre-/postemergence plant response; conditions: Postemergence
Summary of the method: as §2

soybean (Glycine max) = test: Test D pre-/postemergence plant response; conditions: Postemergence
Summary of the method: as §2

[7] = system: ragweed (common ragweed, Ambrosia elatior); test: Test D pre-/postemergence plant response; conditions: Postemergence
Summary of the method: as §2

corn (Zea mays) = test: Test D pre-/postemergence plant response; conditions: Postemergence; for Plant response rating, Corn: scale 0 to 100, 0 no effect, 100 complete control
Summary of the method: as §2

[8] = system: morningglory (Ipomoea coccinea); test: Test D pre-/postemergence plant response; conditions: Postemergence
Summary of the method: as §2

[9] = system: pigweed (Amaranthus retroflexus); test: Test D pre-/postemergence plant response; conditions: Postemergence
Summary of the method: as §2

[10] = system: Italian ryegrass (Lolium multiflorum); test: Test D pre-/postemergence plant response; conditions: Postemergence
Summary of the method: as §2

[11] = system: giant foxtail (Setaria faberii); test: Test D pre-/postemergence plant response; conditions: Postemergence; for Plant response rating, Foxtail, Giant: scale 0 to 100, 0 no effect, 100 complete control
Summary of the method: as §2

[12] = system: waterhemp (common waterhemp, Amaranthus rudis); test: Test D pre-/postemergence plant response; conditions: Postemergence
Summary of the method: as §2

[13] = 31 g ai/ha, scale 0 to 100 (0 no effect, 100 complete control)
[14] = 62 g ai/ha, scale 0 to 100, 0 no effect, 100 complete control
[15] = 125 g ai/ha, scale 0 to 100, 0 no effect, 100 complete control

In the case of `Clc1cnc(Oc2ccccc2-c2cc(Cl)sn2)nc1` [Compound 192], the “Plant response rating (scale 0 to 100), Chickweed” value ([1]; 16 g ai/ha) is reported as 0, the “Chickweed plant response rating” value [1, 13] is reported as 50 and the “Plant response rating, Chickweed” value ([1]; 62 g ai/ha) is reported as 50. For the same compound, the “Plant response rating, Chickweed” value ([1]; 125 g ai/ha) was 55, the “Plant response rating, Galium” value [2] was 100 and the “Plant response rating, Blackgrass” value [3] was 90. The “Plant response rating (scale 0 to 100), Nutsedge, Yellow” value ([4]; 16 g ai/ha) was 0, the “Nutsedge, Yellow plant response rating” value [4, 13] was 5 and the “Nutsedge, Yellow plant response rating” value [4, 14] was 0. For the same compound, the “Plant response rating, Nutsedge, Yellow” value [4, 15] was 5, the “Plant response rating (scale 0 to 100), Barnyardgrass” value ([5]; 16 g ai/ha) was 5 and the “Barnyardgrass plant response rating” value [5, 13] was 5. The “Plant response rating, Barnyardgrass” value ([5]; 62 g ai/ha) was 5, the “Plant response rating, Barnyardgrass” value ([5]; 125 g ai/ha) was 5 and the “Plant response rating (scale 0 to 100), Oilseed Rape” value ([6]; 16 g ai/ha) was 0. For the same compound, the “Oilseed Rape plant response rating” value [6, 13] was 0, the “Oilseed Rape plant response rating” value [6, 14] was 5 and the “Plant response rating, Oilseed Rape” value [6, 15] was 50. For the same compound, the “Plant response rating (scale 0 to 100), Soybean” value (soybean (Glycine max); 16 g ai/ha) was 10, the “Soybean plant response rating” value (soybean (Glycine max); [13]) was 30 and the “Soybean plant response rating” value (soybean (Glycine max); [14]) was 55. For the same compound, the “Plant response rating, Soybean” value (soybean (Glycine max); [15]) was 85, the “Plant response rating (scale 0 to 100), Ragweed” value ([7]; 16 g ai/ha) was 0 and the “Ragweed plant response rating” value [7, 13] was 5. For the same compound, the “Ragweed plant response rating” value [7, 14] was 15, the “Plant response rating, Ragweed” value [7, 15] was 45 and the “Plant response rating (scale 0 to 100), Corn” value (corn (Zea mays); 16 g ai/ha) was 0. The “Corn plant response rating” value (corn (Zea mays); [13]) was 0, the “Plant response rating, Corn” value (corn (Zea mays); 62 g ai/ha) was 5 and the “Plant response rating, Corn” value (corn (Zea mays); 125 g ai/ha) was 10. For the same compound, the “Plant response rating (scale 0 to 100), Morningglory” value ([8]; 16 g ai/ha) was 0, the “Morningglory plant response rating” value [8, 13] was 0 and the “Morningglory plant response rating” value [8, 14] was 10. For the same compound, the “Plant response rating, Morningglory” value [8, 15] was 45, the “Plant response rating (scale 0 to 100), Pigweed” value ([9]; 16 g ai/ha) was 15 and the “Pigweed plant response rating” value [9, 13] was 20. The “Pigweed plant response rating” value [9, 14] was 55, the “Plant response rating, Pigweed” value [9, 15] was 55 and the “Plant response rating (scale 0 to 100), Ryegrass, Italian” value ([10]; 16 g ai/ha) was 0. The “Ryegrass, Italian plant response rating” value [10, 13] was 0, the “Ryegrass, Italian plant response rating” value [10, 14] was 0 and the “Plant response rating, Ryegrass, Italian” value [10, 15] was 0. The “Plant response rating (scale 0 to 100), Foxtail, Giant” value ([11]; 16 g ai/ha) was 10, the “Foxtail, Giant plant response rating” value [11, 13] was 25 and the “Plant response rating, Foxtail, Giant” value ([11]; 62 g ai/ha) was 25. For the same compound, the “Plant response rating, Foxtail, Giant” value ([11]; 125 g ai/ha) was 15, the “Plant response rating (scale 0 to 100), Waterhemp” value ([12]; 16 g ai/ha) was 20 and the “Waterhemp plant response rating” value [12, 13] was 40. For the same compound, the “Waterhemp plant response rating” value [12, 14] was 55 and the “Plant response rating, Waterhemp” value [12, 15] was 70.
